Key:
[1] = system: HELA; assay: In vitro cytotoxic activity, SRB assay; conditions: for CC50: read-out: LC50, 48 hours exposure
Method: The finality of these assays is to interrupt the growth of a “in vitro” tumor cell culture by means a continued exhibition of the cells to the sample to be testing.
Most of the cell lines are obtained from American Type Culture Collection (ATCC) derived from different human cancer types.
Cells are maintained in RPMI 1640 10% FBS, supplemented with 0.1 g/l penicillin and 0.1 g/l streptomycin sulfate and then incubated at 37° C., 5% CO2 and 98% humidity. For the experiments, cells were harvested from subconfluent cultures using trypsin and resuspended in fresh medium before plating.
Cells are seeded in 96 well microtiter plates, at 5×10^3 cells per well in aliquots of 195 μl medium, and they are allowed to attach to the plate surface by growing in drug free medium for 18 hours. Afterward, samples are added in aliquots of 5 μl in a ranging from 10 to 10^−8 μg/ml, dissolved in DMSO/EtOH/PBS (0.5:0.5:99). After 48 hours exposure, the antitumor effect are measured by the SRB methodology: cells are fixed by adding 50 μl of cold 50% (wt/vol) trichloroacetic acid (TCA) and incubating for 60 minutes at 4° C. Plates are washed with deionized water and dried. One hundred μl of SRB solution (0.4% wt/vol in 1% acetic acid) is added to each microtiter well and incubated for 10 minutes at room temperature. Unbound SRB is removed by washing with 1% acetic acid. Plates are air dried and bound stain is solubilized with Tris buffer. Optical densities are read on a automated spectrophotometric plate reader at a single wavelength of 490 nm.
The values for mean +/− SD of data from triplicate wells are calculated. Some parameters for cellular responses can be calculated: GI=growth inhibition, TGI=total growth inhibition (cytostatic effect) and LC=cell killing (cytotoxic effect).

[2] = system: MEL-28; assay: In vitro cytotoxic activity, SRB assay; format: cell-based, human; conditions: MEL-28, 48 hours exposure
Excerpt: (§1) Plates are washed with deionized water and dried.

[3] = system: PANC-1; assay: In vitro cytotoxic activity, SRB assay; format: cell-based, human; conditions: PANC-1, 48 hours exposure
Excerpt: as §1

[4] = system: LN-caP; assay: In vitro cytotoxic activity, SRB assay; format: cell-based, human; conditions: 48 hours exposure
Excerpt: as §1

[5] = system: HT-29; assay: In vitro cytotoxic activity, SRB assay; format: cell-based, human; conditions: HT-29, 48 hours exposure; for CC50: read-out: LC50 (the source's name)
Excerpt: as §1

[6] = system: DU-145; assay: In vitro cytotoxic activity, SRB assay; format: cell-based, human; conditions: DU-145, 48 hours exposure
Excerpt: as §1

[7] = system: HELA-APL; assay: In vitro cytotoxic activity, SRB assay; format: cell-based, human; conditions: 48 hours exposure; for CC50: read-out: LC50 (the source's name)
Excerpt: as §1

[8] = system: A-549; assay: In vitro cytotoxic activity, SRB assay; format: cell-based, human; conditions: A-549, 48 hours exposure; for CC50: read-out: LC50 (the source's name)
Excerpt: as §1

[9] = system: IGROV-ET; assay: In vitro cytotoxic activity, SRB assay; format: cell-based, human; conditions: 48 hours exposure
Excerpt: as §1

[10] = system: SK-BR-3; assay: In vitro cytotoxic activity, SRB assay; format: cell-based, human; conditions: SK-BR-3, 48 hours exposure; for CC50: read-out: LC50 (the source's name)
Excerpt: as §1

[11] = system: K-562; assay: In vitro cytotoxic activity, SRB assay; format: cell-based, human; conditions: K-562, 48 hours exposure
Excerpt: as §1

[12] = system: LOVO; assay: In vitro cytotoxic activity, SRB assay; format: cell-based, human; conditions: 48 hours exposure
Excerpt: as §1

[13] = system: LOVO-DOX; assay: In vitro cytotoxic activity, SRB assay; format: cell-based, human; conditions: 48 hours exposure
Excerpt: as §1

[14] = system: IGROV; assay: In vitro cytotoxic activity, SRB assay; format: cell-based, human; conditions: 48 hours exposure
Excerpt: as §1

[15] = In vivo MTD in athymic mice; conditions: mouse; for MTD at 5 days: 5 daily doses; for MTD: intravenous, single bolus
Method: (§2) The Maximum Tolerated Dose is determined in CD-1 and athymic mice (both genders) for each drug after single bolus administration and after 5 dayly doses. The results are given in table IV, there is no significant difference between the compounds 5 methylhexanoic KF and (4S)-methylhexanoic KF.

[16] = system: female mice; conditions: cited from earlier work
[17] = In vivo MTD in CD-1 mice; conditions: mouse, unit inferred; for MTD at 5 days: 5 daily doses; for MTD: intravenous, single bolus
Method: as §2

[18] = system: AML-12, normal mouse liver cells; assay: In vitro toxicity to normal cells, MTS assay; conditions: read-out: ALM Liver IC50, 24 h
Method: (§3) In order to assess the cytotoxicity of the drugs to normal cells, we used 96 well plates plated at a density of 5000 cells per well with normal cell lines maintained as per the directions of the ATCC: AML-12, normal mouse liver cells and NRK-52E, normal rat kidney cell. The cells in each plate were permitted to settle overnight before adding the test drug. To each well (100 μl medium) 10 μl of drug in media was added at varying concentrations (1×10^−10-0.01 mg/ml final concentration) and further incubated overnight at 37° C. with 5% CO2. All experiments were repeated at least 3 times and were assayed in duplicate. After 24 h the MTS assay (CellTiter 96 aqueous) was performed according to the manufacturer's (Promega) directions (for all cell types). Cell viability (mitochondrial activity) is determined via enzymatic conversion of the formazan substrate.

[19] = system: NRK-52E, normal rat kidney cell; assay: In vitro toxicity to normal cells, MTS assay; format: cell-based; conditions: 24 h
Method: as §3

[20] = female athymic mice, no unit printed in table (325 μg/kg/day), read-out: Female athymic mice MTD 5DD
[21] = female athymic mice, unit inferred, read-out: Female athymic mice MTD Bolus
[22] = male athymic mice, unit inferred, read-out: Male athymic mice MTD Bolus
[23] = male athymic mice, unit inferred, read-out: Male athymic mice MTD 5DD
[24] = female CD-1 mice, read-out: Female CD-1 mice MTD 5DD
[25] = female CD-1 mice, read-out: Female CD-1 mice MTD Bolus
[26] = male CD-1 mice, read-out: Male CD-1 mice MTD Bolus
[27] = male CD-1 mice, read-out: Male CD-1 mice MTD 5DD

Work on C/C=C1\NC(=O)[C@H](Cc2ccccc2)NC(=O)[C@@H](C(C)C)NC(=O)[C@@H]([C@@H](C)CC)NC(=O)[C@H](NC(=O)[C@H](NC(=O)[C@H](CCCN)NC(=O)[C@H]2CCCN2C(=O)[C@H](NC(=O)[C@@H](NC(=O)[C@@H](NC(=O)[C@H](NC(=O)CC[C@H](C)CC)C(C)C)[C@@H](C)O)C(C)C)C(C)C)[C@@H](C)CC)[C@@H](C)OC(=O)[C@H](C(C)C)NC1=O [(4R)-methylhexanoic KF] yielded a GI50 ([1]; 48 hours exposure) of 1.05 µM, a TGI ([1]; 48 hours exposure) of 1.93E−06 Molar and a CC50 [1] of 3.55 µM. For the same molecule, the GI50 [2] was 1.14 µM, the LC50 [2] was 3.8 µM and the TGI [2] was 2.09E−06 Molar. For the same molecule, the GI50 [3] was 4.7 µM, the LC50 [3] was 4.24 µM and the TGI [3] was 4.24E−06 Molar. It also gave a GI50 [4] of 1.5 µM, an LC50 (50% lethal concentration) [4] of 4.04 µM and a TGI [4] of 2.46E−06 Molar. The GI50 [5] was 0.738 µM, the TGI [5] was 1.54E−06 Molar and the CC50 [5] was 3.22 µM. The GI50 [6] was 1.2 µM, the LC50 [6] was 3.82 µM and the TGI [6] was 2.14E−06 Molar. The GI50 [7] was 1.56 µM, the TGI [7] was 3.47E−06 Molar and the CC50 [7] was 6.77 µM. The GI50 [8] was 1.2 µM, the TGI [8] was 2.26E−06 Molar and the CC50 [8] was 4.24 µM. It also gave a GI50 [9] of 0.805 µM, an LC50 [9] of 3.26 µM and a TGI [9] of 1.62E−06 Molar. For the same molecule, the GI50 [10] was 1.25 µM, the TGI [10] was 2.20E−06 Molar and the CC50 [10] was 3.86 µM. It also gave a GI50 [11] of 3.73 µM, an LC50 (50% lethal concentration) [11] of 6.77 µM and a TGI [11] of 6.77E−06 Molar. For the same molecule, the GI50 [12] was 0.248 µM, the LC50 (50% lethal concentration) [12] was 2.28 µM and the TGI [12] was 7.78E−07 Molar. The GI50 [13] was 0.288 µM, the LC50 [13] was 2.19 µM and the TGI [13] was 7.71E−07 Molar. It also gave a GI50 [14] of 0.941 µM, an LC50 [14] of 3.5 µM and a TGI [14] of 1.81E−06 Molar.

C/C=C1\NC(=O)[C@H](Cc2ccccc2)NC(=O)[C@@H](C(C)C)NC(=O)[C@@H]([C@@H](C)CC)NC(=O)[C@H](NC(=O)[C@H](NC(=O)[C@H](CCCN)NC(=O)[C@H]2CCCN2C(=O)[C@H](NC(=O)[C@@H](NC(=O)[C@@H](NC(=O)[C@H](NC(=O)CCCC(C)C)C(C)C)[C@@H](C)O)C(C)C)C(C)C)[C@@H](C)CC)[C@@H](C)OC(=O)[C@H](C(C)C)NC1=O [5-methylhexanoic KF, reference compound] gave an MTD at 5 days [15, 20] of 0.325 mg/kg, an MTD [15, 21] of 0.325 mg/kg and an MTD [15, 22] of 0.35 mg/kg. For the same molecule, the MTD at 5 days [15, 23] was 0.35 mg/kg, the “tolerability of repeated administration” value ([16]; 280 μg/kg, once daily times five schedule) was “without any apparent evidence of acute toxicity” and the “maximum tolerated dose (MTD)” value ([16]; female mice, single bolus iv injection) was 0.28 mg/kg. It also gave an MTD at 5 days [17, 24] of 0.175 to 0.35 mg/kg, an MTD [17, 25] of 0.2 mg/kg and an MTD [17, 26] of 0.3 mg/kg. It also gave an MTD at 5 days [17, 27] of 0.175 to 0.35 mg/kg, an IC50 [18] of 3.4 µM and a GI50 ([1]; 48 hours exposure) of 0.839 µM. It also gave a CC50 [1] of 4.26 µM, a GI50 [2] of 0.69 µM and an LC50 [2] of 3.55 µM. For the same molecule, the GI50 [3] was 1.38 µM, the LC50 [3] was 6.07 µM and the GI50 [4] was 0.961 µM. The LC50 (50% lethal concentration) [4] was 5.57 µM, the GI50 [5] was 0.141 µM and the CC50 [5] was 0.562 µM. For the same molecule, the GI50 [6] was 0.751 µM, the LC50 [6] was 3.6 µM and the GI50 [7] was 1.06 µM. The CC50 [7] was 4.43 µM, the GI50 [8] was 0.866 µM and the CC50 [8] was 3.78 µM. For the same molecule, the GI50 [9] was 0.447 µM, the LC50 [9] was 3.09 µM and the GI50 [10] was 0.398 µM. For the same molecule, the CC50 [10] was 6.77 µM, the GI50 [11] was 1.54 µM and the LC50 (50% lethal concentration) [11] was 5.66 µM. For the same molecule, the GI50 [12] was 0.12 µM, the LC50 (50% lethal concentration) [12] was 0.428 µM and the GI50 [13] was 0.162 µM. For the same molecule, the LC50 [13] was 0.62 µM, the GI50 [14] was 0.42 µM and the LC50 [14] was 3.8 µM. It also gave an IC50 [19] of 2.7 µM.

In the case of C/C=C1\NC(=O)[C@H](Cc2ccccc2)NC(=O)[C@@H](C(C)C)NC(=O)[C@@H]([C@@H](C)CC)NC(=O)[C@H](NC(=O)[C@H](NC(=O)[C@H](CCCN)NC(=O)[C@H]2CCCN2C(=O)[C@H](NC(=O)[C@@H](NC(=O)[C@@H](NC(=O)[C@H](NC(=O)CC[C@@H](C)CC)C(C)C)[C@@H](C)O)C(C)C)C(C)C)[C@@H](C)CC)[C@@H](C)OC(=O)[C@H](C(C)C)NC1=O [(4S)-methylhexanoic KF, 4(S)-MeHex-D-Val-L-Thr-L-VaI-D-Val-D-Pro-L-Orn-D-allo-Ile-cyclo(D-allo-Thr-D-allo-Ile-D-Val-L-Phe-Z-Dhb-L-Val)], the MTD at 5 days [15, 20] is reported as 0.325 mg/kg, the MTD [15, 21] is reported as 0.325 mg/kg and the MTD [15, 22] is reported as 0.35 mg/kg. For the same molecule, the MTD at 5 days [15, 23] was 0.35 mg/kg, the MTD at 5 days [17, 24] was 0.175 to 0.35 mg/kg and the MTD [17, 25] was 0.2 mg/kg. It also gave an MTD [17, 26] of 0.3 mg/kg, an MTD at 5 days [17, 27] of 0.175 to 0.35 mg/kg and an IC50 [18] of 5.4 µM. The GI50 ([1]; 48 hours exposure) was 1.18 µM, the CC50 [1] was 4.97 µM and the GI50 [2] was 1.43 µM. For the same molecule, the LC50 [2] was 4.72 µM, the GI50 [3] was 6.77 µM and the LC50 [3] was 6.77 µM. The GI50 [4] was 1.12 µM, the LC50 (50% lethal concentration) [4] was 5.93 µM and the GI50 [5] was 0.301 µM. It also gave a CC50 [5] of 2.71 µM, a GI50 [6] of 0.237 µM and an LC50 [6] of 2.49 µM. For the same molecule, the GI50 [7] was 1.04 µM, the CC50 [7] was 4.39 µM and the GI50 [8] was 0.267 µM. For the same molecule, the CC50 [8] was 3.09 µM, the GI50 [9] was 0.225 µM and the LC50 [9] was 2.82 µM. The GI50 [10] was 0.181 µM, the CC50 [10] was 0.606 µM and the GI50 [11] was 2.52 µM. It also gave an LC50 (50% lethal concentration) [11] of 6.77 µM, a GI50 [12] of 0.163 µM and an LC50 (50% lethal concentration) [12] of 0.58 µM. It also gave a GI50 [13] of 0.157 µM, an LC50 [13] of 0.677 µM and a GI50 [14] of 0.292 µM. It also gave an LC50 [14] of 2.62 µM and an IC50 [19] of 2.7 µM.

Source: patent US7507708B2, “Antitumoral compounds” (Pharma Mar, S.A.U., priority 2003, dated 2009)
